In ChEMBL document CHEMBL3352532, “Microwave assisted synthesis and docking study of N-(2-oxo-2-(4-oxo-2-substituted thiazolidin-3ylamino)ethyl)benzamide derivatives as anticonvulsant agents” (Bioorg Med Chem Lett, 2014):
The source made the active and inactive calls. The calls are words filed in the database; no cut-off is given here.

Columns and labels:
Mus musculus [1] = assay: Hepatotoxicity in Swiss CF1 mouse assessed as induction of necrosis and fatty changes at 300 mg/kg, ip; format: toxicity, organism-based; parameters: dose 300 mg/kg, route intraperitoneal; settings: in vivo
Mus musculus [2] = assay: Anticonvulsant activity in ip dosed Swiss CF1 mouse measured after 0.5 hrs by MES test; format: functional
Mus musculus [3] = assay: Anticonvulsant activity in ip dosed Swiss CF1 mouse measured after 4 hrs by MES test; format: functional
Mus musculus [4] = assay: Anticonvulsant activity in ip dosed Swiss CF1 mouse measured after 0.5 hrs by scPTZ test; format: functional
Mus musculus [5] = assay: Behavioral activity in Swiss CF1 mouse assessed as activity score at 100 mg/kg, ip measured after 4 hrs post dose by actophotometry; format: organism-based; parameters: dose 100 mg/kg, route intraperitoneal; settings: in vivo
Mus musculus [6] = assay: Behavioral activity in Swiss CF1 mouse assessed as activity score at 100 mg/kg, ip measured after 0.5 hrs post dose by actophotometry; format: organism-based; parameters: dose 100 mg/kg, route intraperitoneal; settings: in vivo
[7] = Lipophilicity, log P of the compound by UV spectroscopy; format: physicochemical; settings: octanol/water
Mus musculus [8] = assay: Anticonvulsant activity in ip dosed Swiss CF1 mouse measured after 4 hrs by scPTZ test; format: functional
Mus musculus [9] = assay: Hepatotoxicity in Swiss CF1 mouse assessed as induction of inflammation and necrosis at 300 mg/kg, ip; format: toxicity, organism-based; parameters: dose 300 mg/kg, route intraperitoneal; settings: in vivo
[10] = Neurotoxicity in ip dosed Swiss CF1 mouse assessed as induction of motor impairment measured after 4 hrs by rotorod test; format: toxicity, organism-based; settings: in vivo, read-out: MTD50
[11] = Neurotoxicity in ip dosed Swiss CF1 mouse assessed as induction of motor impairment measured after 0.5 hrs by rotorod test; format: toxicity, organism-based; settings: in vivo, read-out: MTD50
Mus musculus [12] = assay: Hepatotoxicity in Swiss CF1 mouse assessed as induction of fatty changes and inflammations at 300 mg/kg, ip; format: toxicity, organism-based; parameters: dose 300 mg/kg, route intraperitoneal; settings: in vivo

| SMILES | Activity (Mus musculus [1]) | MED50 (Mus musculus [2]) | MED50 (Mus musculus [3]) | MED50 (Mus musculus [4]) | Activity (Mus musculus [5]) | Activity (Mus musculus [6]) | logP [7] | MED50 (Mus musculus [8]) | Activity (Mus musculus [9]) | TD50 at 4 h [10] | TD50 at 0.5 h [11] | Activity (Mus musculus [12]) |
| --- | --- | --- | --- | --- | --- | --- | --- | --- | --- | --- | --- | --- |
| O=C1NC(=O)C(c2ccccc2)(c2ccccc2)N1 [PHENYTOIN] | Toxic | 30 mg/kg | 30 mg/kg | – | – | – | – | – | – | – | – | – |
| O=C(CNC(=O)c1ccccc1)NN1C(=O)CSC1c1ccc(Cl)cc1 (stereo not given) | – | 100 mg/kg | 100 mg/kg | 300 mg/kg | 71.6 | 103.6 | 2.87 | inactive | – | – | – | – |
| O=C(CNC(=O)c1ccccc1)NN1C(=O)CSC1c1ccccc1 (stereo not given) | – | 300 mg/kg | 300 mg/kg | 100 mg/kg | 94.8 | 74 | 1.95 | 300 mg/kg | Toxic | 300 mg/kg | 100 mg/kg | – |
| O=C(CNC(=O)c1ccccc1)NN1C(=O)CSC1c1ccc(F)cc1 (stereo not given) | – | inactive | inactive | inactive | 94 | 64.6 | 2.1 | inactive | – | 300 mg/kg | – | – |
| COc1ccc(C2SCC(=O)N2NC(=O)CNC(=O)c2ccccc2)cc1OC (stereo not given) | – | 30 mg/kg | 30 mg/kg | 100 mg/kg | 88.6 | 42 | 1.85 | 300 mg/kg | – | – | – | Non-toxic |
| COc1cc(C2SCC(=O)N2NC(=O)CNC(=O)c2ccccc2)cc(OC)c1OC (stereo not given) | – | 100 mg/kg | 300 mg/kg | 300 mg/kg | 101 | 92.6 | 1.65 | 300 mg/kg | – | 100 mg/kg | 100 mg/kg | – |
| O=C(CNC(=O)c1ccccc1)NN1C(=O)CSC1c1ccc(O)cc1 (stereo not given) | – | 30 mg/kg | 100 mg/kg | inactive | 99.6 | 38.2 | 1.75 | inactive | – | – | – | – |
| COc1ccc(C2SCC(=O)N2NC(=O)CNC(=O)c2ccccc2)cc1 (stereo not given) | – | 300 mg/kg | inactive | 100 mg/kg | 80.2 | 77.8 | 1.85 | inactive | – | 300 mg/kg | 300 mg/kg | – |
| O=C(CNC(=O)c1ccccc1)NN1C(=O)CSC1c1ccccc1Cl (stereo not given) | – | 100 mg/kg | 300 mg/kg | inactive | 110.8 | 108.8 | 2.3 | inactive | – | 100 mg/kg | 100 mg/kg | – |
| O=C(CNC(=O)c1ccccc1)NN1C(=O)CSC1c1cccc(Cl)c1 (stereo not given) | – | 300 mg/kg | inactive | inactive | 108.2 | 102.6 | 2.8 | inactive | – | 30 mg/kg | 30 mg/kg | – |
| O=C(CNC(=O)c1ccccc1)NN1C(=O)CSC1c1c[nH]c2ccccc12 (stereo not given) | – | 300 mg/kg | inactive | inactive | 120 | 102.6 | 1.7 | inactive | – | 100 mg/kg | 300 mg/kg | – |
| CCCC(CCC)C(=O)[O-].[Na+] [VALPROATE SODIUM] | – | – | – | 300 mg/kg | – | – | – | inactive | – | – | – | – |
